The target in series [1] is T1, dopamine transporters (Rattus norvegicus, UniProt P23977). Description: affinity of IPT for dopamine transporters (document 11). Format: binding. To be noted: from document 11 values. From the text: Therefore a specificity Kd(5-HT)/Kd(DA) of approximately 5 is obtained.
By way of comparison, the affinity of compound IPT for dopamine transporters described in document 11 corresponds to: […]

Another series concerns the target serotonin transporters. To be noted: document 11, page 320; cited from earlier work.
Series [2] concerns the target T1, dopamine transporters. To be noted: document 11; cited from earlier work.
Series [3] has as its target dopamine transporter. To be noted: Bonnet and Constantin 1986; cited from earlier work.
Series [4] relates to dopamine transporter system. To be noted: prior art compound; source not stated; cited from earlier work.
For series [5], the system named is dopamine transporter. Kind of series: in vivo brain biodistribution in the rat with preinjection of GBR 12909 (specific inhibitor of the dopamine transporter). To be noted: for fixation in the striatum prevented/inhibited by preinjection of GBR 12909: GBR 12909 5 mg/kg i.v. 30 min before, 2 hours after injection. Set-up: species or system rat (male Wistar). On the procedure:
(§1) In this example, in vivo tests in the rat are used to study the affinity and specificity of the compound of example 1, hereinafter called PE21, for the dopamine transporter.
(§2) For this purpose 3 batches of male Wistar rats are used using 6 rats per batch. Batch number 1 is first given an intravenous injection of GBR 12909 (specific inhibitor of the dopamine transporter produced by RBI Bioblock) at a dose of 5 mg/kg, and 30 minutes later an injection of the compound of example 1 is given by intravenous route, at a dose of 8.10^-6 mg/kg.
(§3) Batch number 3, or the reference batch, only receives an intravenous injection of the compound of example 1.
(§4) 2 hours later, the animals are sacrificed and the doses of radioactivity in the cerebellum, striatum and frontal cortex tissues are determined.
(§5) The results obtained are given in FIG. 2 and are expressed as a % of the dose injected per gram of tissue.
(§6) In this figure, the columns in white relate to batch number 3 (reference), the shaded columns relate to batch number 1 which received GBR 12909 and the dotted columns relate to batch number 2 which received paroxetine.
(§7) In this example, the same operating mode as in example 14 is followed to conduct the same in vivo brain biodistribution study in the rat, but using the compound of the prior art β-CIT (3b-4-iodo[^125 I]phenyl)-tropan-2β-carboxylic acid methyl ester) instead of the compound of example 1.

Series [6] concerns the target serotonin transporter (Macaca fascicularis, UniProt A7KAX8). To be noted: read-out: Affinity: Ki (nM) Serotonin 5-HT; [^3 H]citalopram; document 10; cited from earlier work.
For series [7], the target named is T2, noradrenaline transporter (Rattus norvegicus, UniProt Q63380).
T2 construct: in vitro studies are conducted on brain membrane preparations; from tissue; host or cells: brain membrane preparations
T2 sequence (Q63380 1-617): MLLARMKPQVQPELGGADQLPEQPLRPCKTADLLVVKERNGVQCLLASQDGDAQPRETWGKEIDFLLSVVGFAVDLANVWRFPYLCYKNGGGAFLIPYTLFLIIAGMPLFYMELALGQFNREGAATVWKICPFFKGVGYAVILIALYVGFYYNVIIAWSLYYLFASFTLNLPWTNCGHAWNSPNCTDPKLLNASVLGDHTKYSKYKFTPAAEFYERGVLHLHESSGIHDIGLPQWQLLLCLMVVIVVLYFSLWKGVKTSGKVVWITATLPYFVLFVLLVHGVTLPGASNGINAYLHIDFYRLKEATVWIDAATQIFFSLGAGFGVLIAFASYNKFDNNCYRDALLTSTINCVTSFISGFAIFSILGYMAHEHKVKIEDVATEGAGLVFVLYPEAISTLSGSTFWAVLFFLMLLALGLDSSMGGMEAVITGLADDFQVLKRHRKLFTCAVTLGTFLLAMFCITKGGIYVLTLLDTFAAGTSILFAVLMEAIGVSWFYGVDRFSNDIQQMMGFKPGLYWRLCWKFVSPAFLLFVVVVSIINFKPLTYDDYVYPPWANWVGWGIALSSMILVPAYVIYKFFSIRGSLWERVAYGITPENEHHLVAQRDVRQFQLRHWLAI
Kind of series: in vitro competition with [^3 H]-nisoxetine on brain membrane preparations. Format: binding. The protocol: (§8) In this example, in vitro studies are conducted on brain membrane preparations.
(§9) These studies are competition studies between [^3 H]-GBR 12935 (dopamine transporter), [^3 H]-paroxetine (serotonin transporter), [^3 H]-nisoxetine (noradrenaline transporter) and the iodinated derivative of example 1 (PE21).
(§10) The inhibition constants Ki (nM) obtained with the compound of the invention PE21 in competition with the different ligands are given in table 4.
(§11) Med., 1996, 37, pages 1197-1202 for tests of the same type conducted with β-CIT and iodoaltropane described in WO-A-95/11901.

Series [8] has as its system serotonin transporter. Description: in vivo brain biodistribution in the rat with preinjection of paroxetine (specific inhibitor of the serotonin transporter). Set-up: species or system rat (male Wistar). To be noted: for specificity for the dopamine transporter compared with the serotonin transporter in vivo: rat brain. The protocol: as §1
Batch number 2 first receives an injection of paroxetine (specific inhibitor of the serotonin transporter made by Beecham laboratories) at a dose of 5 mg/kg, and 30 minutes later an injection of the compound of example 1 is given under the same conditions as for batch number 1.
as §3, §4, §5, §6, §7

Series [9] addresses T3, serotonin transporter (Rattus norvegicus, UniProt P31652).
T3 construct: in vitro studies are conducted on brain membrane preparations; from tissue; host or cells: brain membrane preparations
Kind of series: biochemical. Format: binding. The protocol:
as §8, §11

The target of series [10] is dopamine transporter. Description: in vitro competition with [^3 H]-GBR 12935 on brain membrane preparations. In kind it is binding. To be noted: for Ki: read-out: Affinity: Ki (nM) Dopamine (DA); for Selectivity 5-HT/DA, Ki(5-HT):Ki(DA): [^3 H]paroxetine Ki over [^3 H]GBR Ki. On the procedure: as §8, §9, §10, §11
Series [11] has as its target dopamine transporter. To be noted: [^3 H]Win35428; document 10; read-out: Affinity: Ki (nM) Dopamine (DA); cited from earlier work.
In series [12] the target is dopamine transporter. Description: competition with [^3 H]Win35428 (document 10). To be noted: document 10 data. In kind it is binding.
Excerpt: as §11

Series [13] is described as follows: biodistribution study in the rat, time course (cerebellum, striatum, frontal cortex). To be noted: for tissue uptake at 0.5 h / tissue uptake at 1 h / tissue uptake at 2 h / tissue uptake at 4 h: rat, iv, 8e-06 mg/kg; for tissue uptake at 0.5 h: 0.5 h post-injection; for tissue uptake at 1 h: 1 h post-injection; for tissue uptake at 2 h: 2 h post-injection; for tissue uptake at 4 h: 4 h post-injection. Format: in vivo, rat (male Wistar). The protocol:
as §2, §3, §4, §5
In this example, a biodistribution study in the rat is also conducted for the compound of example 1 following the same operating mode as in example 14, but sacrificing the animals at 1/2 hour, 1 hour or 4 hours after injection.
In this table, the results obtained in example 14 are also given.

The subject of a further series is dopaminergic cells. Description: rat model of Parkinson's disease (unilateral 6-OHDA lesion of the nigrostriatal pathway), ex vivo autoradiography. Format: in vivo, rat (Wistar). To be noted: 2 hours after 3.7 MBq i.v. On the procedure:
In this example, the compound of example 1 PE21 was tested in the rat using a model of Parkinson's disease obtained with a unilateral lesion of the nigrostriatal pathway. For this purpose Wistar rats were unilaterally perfused in the substantia nigra with 8 μg of 6-OHDA(6-hydroxy dopamine).
Three weeks later, they were given an intravenous 3.7 MBq injection of [^125 I]PE21.
Two hours afterwards, the rats were sacrificed and their brains collected. The latter were frozen and coronal sections 20 μm thick were taken which were exposed on β-max hyperfilm for six weeks.
The striatum/frontal cortex ratios were calculated after analysis of the films. On the lesion side, an average ratio of 0.86±0.10 was observed, while this ratio was 7.20±0.91 on the intact side.

Series [14] concerns dopamine transporter system. Description: kinetics study in vivo on the brain distribution in primates (SPECT, […]). To be noted: words. Set-up: species or system primates (Cynomologus female macaque). On the procedure: In this example, a kinetics study in vivo is made on the brain distribution of the compound of example 1 in primates (Cynomologus female macaque, 2 kg, anaesthetized with ketamine, with data acquisition made every 12 minutes on […]).

Series [15] addresses T1, dopamine transporters. Kind of series: in vitro affinity of [^125 I]PE21 for dopamine transporters. Format: binding. The protocol:
The affinity of compound [^125 I)PE21 for dopamine transporters was also determined in vitro, and the following value was obtained: […]

The mark [16] stands for this setting: cerebellum, read-out: Cerebellum.
[17] abbreviates: frontal cortex, read-out: Frontal cortex (% injected dose/g tissue).
[18] abbreviates: striatum, read-out: Striatum (% injected dose/g tissue).

Read-outs that look alike come from different tables or passages of the source. Some results are limits rather than exact numbers.

T1 sequence (P23977 whole entry): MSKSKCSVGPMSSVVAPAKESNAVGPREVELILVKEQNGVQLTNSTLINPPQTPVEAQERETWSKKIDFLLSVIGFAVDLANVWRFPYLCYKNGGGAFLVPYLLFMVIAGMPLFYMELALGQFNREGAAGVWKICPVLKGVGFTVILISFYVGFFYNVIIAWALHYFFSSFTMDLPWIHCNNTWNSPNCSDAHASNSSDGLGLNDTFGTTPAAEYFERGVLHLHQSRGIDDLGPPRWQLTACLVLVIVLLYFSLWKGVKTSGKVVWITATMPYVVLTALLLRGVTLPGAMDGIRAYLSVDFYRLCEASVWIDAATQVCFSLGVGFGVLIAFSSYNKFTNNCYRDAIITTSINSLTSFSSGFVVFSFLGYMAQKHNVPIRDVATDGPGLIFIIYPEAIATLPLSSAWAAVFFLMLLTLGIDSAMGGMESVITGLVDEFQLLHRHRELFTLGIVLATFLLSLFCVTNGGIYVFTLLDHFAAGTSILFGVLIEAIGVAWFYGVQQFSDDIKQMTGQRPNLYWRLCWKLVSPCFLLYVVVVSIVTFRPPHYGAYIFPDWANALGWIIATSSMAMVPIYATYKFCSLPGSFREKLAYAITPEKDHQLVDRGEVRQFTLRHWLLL
T3 sequence (P31652 whole entry): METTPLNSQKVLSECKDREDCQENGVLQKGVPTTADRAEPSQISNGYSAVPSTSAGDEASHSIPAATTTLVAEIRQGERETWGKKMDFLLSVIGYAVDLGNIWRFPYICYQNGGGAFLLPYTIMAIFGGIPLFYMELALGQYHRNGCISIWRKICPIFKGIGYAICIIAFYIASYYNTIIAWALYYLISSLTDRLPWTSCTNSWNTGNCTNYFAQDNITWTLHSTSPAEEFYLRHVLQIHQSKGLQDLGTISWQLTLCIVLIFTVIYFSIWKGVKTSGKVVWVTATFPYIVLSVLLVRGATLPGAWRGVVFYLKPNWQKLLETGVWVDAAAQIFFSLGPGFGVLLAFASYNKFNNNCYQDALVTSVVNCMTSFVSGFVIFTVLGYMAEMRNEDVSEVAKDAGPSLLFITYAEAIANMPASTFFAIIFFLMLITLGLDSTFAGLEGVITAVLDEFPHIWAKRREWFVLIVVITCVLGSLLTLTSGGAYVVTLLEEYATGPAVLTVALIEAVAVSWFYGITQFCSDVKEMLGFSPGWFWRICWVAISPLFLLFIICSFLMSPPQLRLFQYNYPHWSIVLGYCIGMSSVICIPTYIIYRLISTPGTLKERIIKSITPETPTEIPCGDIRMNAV
Chain of serotonin transporter (Macaca fascicularis, UniProt A7KAX8) (A7KAX8 1-630): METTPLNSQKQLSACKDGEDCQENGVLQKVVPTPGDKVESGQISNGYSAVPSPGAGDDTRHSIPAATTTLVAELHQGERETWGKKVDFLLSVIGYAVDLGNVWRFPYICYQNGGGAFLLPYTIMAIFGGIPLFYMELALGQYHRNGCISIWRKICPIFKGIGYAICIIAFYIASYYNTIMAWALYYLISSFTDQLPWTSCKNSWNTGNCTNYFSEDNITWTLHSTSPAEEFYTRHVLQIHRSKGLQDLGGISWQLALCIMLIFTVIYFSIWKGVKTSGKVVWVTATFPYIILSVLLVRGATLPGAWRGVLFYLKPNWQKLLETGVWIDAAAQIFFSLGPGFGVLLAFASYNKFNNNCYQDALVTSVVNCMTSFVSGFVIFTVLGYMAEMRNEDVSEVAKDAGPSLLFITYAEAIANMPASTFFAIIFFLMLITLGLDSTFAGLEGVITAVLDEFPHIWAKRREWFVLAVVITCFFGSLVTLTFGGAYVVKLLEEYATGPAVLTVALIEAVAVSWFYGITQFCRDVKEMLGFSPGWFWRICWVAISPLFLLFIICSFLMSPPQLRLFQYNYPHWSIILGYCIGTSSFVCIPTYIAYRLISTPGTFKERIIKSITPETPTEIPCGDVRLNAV

For orientation: Kd means the equilibrium constant for the complex coming apart. Regarding `COC(=O)[C@H]1[C@@H](c2ccc(Cl)cc2)C[C@@H]2CC[C@H]1N2CC=CI` [IPT], on dopamine transporters [1], the “specificity Kd(5-HT)/Kd(DA)” value was “approximately 5”. For the same compound, the Kd was 1.2 ± 0.02 nM at serotonin transporters and 0.25 ± 0.02 nM at dopamine transporters [2].

On to `C(=Cc1ccccc1)CN1CCN(CCOC(c2ccccc2)c2ccccc2)CC1` [GBR 12783], for which, on dopamine transporter [3], the Kd was 1.6 nM.

A word on the Ki: it is a dissociation constant, usually derived from enzyme kinetics or from competition with a known ligand. For the compound `COC(=O)[C@H]1[C@@H](c2ccc(I)cc2)C[C@@H]2CC[C@H]1N2C` [β-CIT, 2β-carbomethoxy-3β-(4' iodophenyl)-tropane, reference compound], the “time at which a specific image of the central grey nuclei starts to be produced” value in [4] is > 20 h. Besides, the “non-specific fixation in the striatum determined after saturation with GBR 12909” value with dopamine transporter [5] (2 hours) was ~70%. In addition, the “fixation in the striatum prevented/inhibited by preinjection of GBR 12909” value with dopamine transporter [5] is 31%. Also, the inhibitory constant (Ki) is 2.53 ± 0.02 nM on serotonin transporter [6]; 80 ± 28 nM in series [7]; 30 ± 2 nM on serotonin transporter [9]; 27 ± 2 nM on dopamine transporter [10] ([^3 H]GBR); 1.08 ± 0.6 nM at dopamine transporter [11]. In the series on serotonin transporter [8] (frontal cortex, rich in serotonin transporter sites, 2 hours, words), the “fixation in the frontal cortex compared with the compound of the invention” value was “much higher than that of the compound of the invention”. In addition, the “inhibition of fixation in the frontal cortex through a preinjection of paroxetine” value in the series on serotonin transporter [8] (frontal cortex, paroxetine 5 mg/kg i.v. 30 min before, 2 hours) is 55%. Besides, the “specificity for the dopamine transporter compared with the serotonin transporter in vivo” value with serotonin transporter [8] (words) is on record as “binds to both these transporters”. Also, in the series on dopamine transporter [10], the “Selectivity 5-HT/DA, Ki(5-HT):Ki(DA)” value is recorded as 1.11.

Regarding `COC(=O)[C@H]1[C@@H](c2ccc(F)cc2)C[C@@H]2CC[C@H]1N2C/C=C/I` [Iodoaltropane], the inhibition constant Ki is 182 ± 41.8 nM on serotonin transporter [6] and 6.62 ± 0.78 nM on dopamine transporter [11]. In addition, the “Ki ratio DA (iodoaltropane)/DA (β-CIT)” value at dopamine transporter [12] came out at 6.

In the case of `COC(=O)[C@H]1[C@@H](c2ccc(C)cc2)C[C@@H]2CC[C@H]1N2C/C=C/[125I]` [Example 1, 2β-carbomethoxy-3β-(p-methylphenyl)-8-(3-[^125 I]iodoprop-2E-enyl)nortropane], the tissue uptake at 0.5 h in [13] (setting [16]) worked out at 0.1 %ID/g; in series [13] (setting [17]), 0.124 %ID/g; in series [13] (setting [18]), 1.06 %ID/g. In addition, the tissue uptake at 1 h came out at 0.055 %ID/g in series [13] (setting [16]), 0.07 %ID/g in series [13] (setting [17]) and 0.537 %ID/g in [13] (setting [18]). Also, the tissue uptake at 2 h was found to be 0.038 %ID/g in series [13] (setting [16]), 0.039 %ID/g in series [13] (setting [17]) and 0.272 %ID/g in series [13] (setting [18]). Besides, the results for the tissue uptake at 4 h in series [13] (setting [16]), in [13] (setting [17]) and in [13] (setting [18]) were 0.021 %ID/g, 0.018 %ID/g and 0.074 %ID/g, respectively. Further, the “accumulation in the striatum” value in series [13] (words) was “accumulates in preferential manner in the striatum”. The “striatum/frontal cortex ratio, lesion side” value with dopaminergic cells (6-OHDA lesion side) is listed as 0.86±0.10. In addition, the “striatum/frontal cortex ratio, intact side” value in the series with dopaminergic cells (intact side) was 7.20±0.91. Further, the “non-specific fixation in the striatum determined after saturation with GBR 12909” value in the series on dopamine transporter [5] (2 hours) was “approximately 25%”. The “specificity for the dopamine transporter in the striatum at early times” value in the series on dopamine transporter [5] (2 hours, words) was “very strong specificity for the dopamine transporter in the striatum”. Also, in the series with dopamine transporter [5], the “fixation in the striatum prevented/inhibited by preinjection of GBR 12909” value was found to be 74%. Moreover, the Ki in series [7] ([^3 H]nisoxetine, read-out: Affinity: Ki (nM) Nor-adrenaline) was > 100 nM; on serotonin transporter [9], 500 ± 80 nM; at dopamine transporter [10] ([^3 H]GBR), 17 ± 7 nM. In addition, the “specificity for the dopamine transporter compared with the serotonin transporter in vivo” value in the series with serotonin transporter [8] (words) was “very strong specificity for the dopamine transporter compared with the serotonin transporter”. Further, the “binding at the central grey nuclei” value in series [14] is “binds itself in specific manner at the central grey nuclei”. The “specificity relative to IPT” value with dopamine transporter [10] (Ki(5-HT)/Ki(DA) of PE21 vs Kd(5-HT)/Kd(DA) of IPT) was 5 times. The “Ki ratio DA (PE21)/DA (β-CIT)” value at dopamine transporter [10] ([^3 H]GBR) was determined as 0.63. Moreover, the “Selectivity 5-HT/DA, Ki(5-HT):Ki(DA)” value in the series with dopamine transporter [10] was 29.4. Also, in the series on dopamine transporter [10] (from Ki ratios to β-CIT), the “better affinity for dopamine transporter relative to iodoaltropane” value is 10 times. For the same compound, the “affinity relative to IPT” value at dopamine transporters [15] (Kd of PE21 vs Kd of IPT (document 11)) turned out to be 2.5 times. The compound also gave a dissociation constant Kd at dopamine transporters [15] ([^125 I]PE21) of 0.09 ± 0.01 nM.

Values taken from patent US6180083A, “Tropane derivatives useable in particular for in vivo detection of dopamine transporters” (CIS bio International, priority 1996, dated 2001).
